Measured values taken from patent publication US6362396B1, “Chimeric gene for the transformation of plants” (Aventis Crop Science, priority 1992, dated 2002).

Tests used:
[1] = system: Spring colzas, Westar cultivar; experiment: Greenhouse glyphosate treatment of transformed spring colza; format: in vivo; settings: 400 g a.s/ha
Text: Spring colzas, Westar cultivar, resistant to glyphosate, were obtained using the method of BOULTER et al., 1990 (Plant Science, 70: 91-99), with the constructs pRPA-BL 488 (dH-At-PTO-aroA-nos), pRPA-BL 502 (CaMV/H-At-PTO- aroA-nos).

tobacco PBD6 plants = experiment: Measurement of the glyphosate tolerance of transformed tobacco plants sown in the open; format: in vivo; settings: untransformed tobacco PBD 6 controls, 0.8 kg/ha, 5-leaf stage, 30 days after the treatment
Protocol: The vector is introduced into the nononcogenic agrobacterium strain EHA 101 (Hood et al., 1987) carrying the cosmid pTVK 291 (Komari et al., 1986). The transformation method is based on the procedure of Horsh et al. (1985).
The regeneration of the tobacco PBD6 (source SEITA France) using foliar explants is carried out on a Murashige and Skoog (MS) basic medium containing 30 g/l of sucrose and […] of kanamycin. The foliar explants are removed from greenhouse- or in vitro-grown plants and transformed according to the foliar disc method (Science 1985, Vol. 227, p. 1229-1231) in three successive stages: the first comprises the induction of shoots on an MS medium supplemented with 30 g of sucrose containing 0.05 mg of naphthylacetic acid (ANA) and 2 mg/l of benzylaminopurine (BAP), for 15 days. The shoots formed during this stage are then developed by culturing on an MS medium supplemented with 30 g/l of sucrose, but not containing hormone, for 10 days. […]
The best plants obtained from the regeneration of transformed tobaccos are selected under a greenhouse after treating the plants, at the 5-leaf stage, […] […] Molecular hybridization analysis enabled the plants having integrated only one copy of the T-DNA to be determined. […]

Structure (SMILES): O=C(O)CNCP(=O)(O)O [glyphosate, N-(phosphonomethyl)glycine]
- effect of glyphosate treatment on nontransgenic plants [1]: destroys nontransgenic plants
- effect of glyphosate on control (untransformed) plants (phytotoxicity) (tobacco PBD6 plants): completely destroyed
